Assays:
Aphis gossypii = assay: A. gossypii protein on cotton plants treated with propyl gallate and cis-jasmone; type: in vivo; conditions: five cotton plants, 3 adult apterous aphids per plant, 7 days
esterase [1] = test system: esterase
whitefly (B. tabaci) = assay: Bioassay: B. tabaci pupae protein on cotton and tomato plants treated with BABA and/or PBO; type: in vivo, Bemisia tabaci; conditions: 3 mM BABA root drench, PBO E spray
Method: In all bioassay experiments the control plants were sprayed with deionised water. Initially seven treatments were used (Table 1b) to test all chemical variables. […] Analysis of protein in each treatment was conducted using Bradford Reagent: the data were analysed using the computer programme ‘GraFit’ (Erithacus software, Berkeley). To calculate the calibration curve a single logarithmic curve was used with regression analysis taking the values of the treatment wells (averages of the three readings taken: technical replicates). Laboratory tests were undertaken to compare effects of combined and single treatments of PBO and BABA on control of aphid (M. persicae) on potato, pepper, and black mustard and whitefly (B. tabaci) on cotton and tomato. All tests included untreated and blank (water) controls, and both single and combined applications of PBO and BABA. […] Adults were added to the plant 2 days after treatment, and removed after 24 h. The eggs laid were then left for 16-18 days until they reached the pupal stage. The total pupal protein on the plant was tested using the Bradford reagent.

Bemisia tabaci, GUA MIX [2] = assay: Bioassay: B. tabaci pupae protein on one tomato plant treated with cis-jasmone and PBO; type: in vivo; conditions: for μg (Av) Total Protein (B. tabaci pupae): one tomato plant, ten adult whiteflies, ~16 days
Method: (§1) In all bioassay experiments the control plants were sprayed with deionised water. Initially seven treatments were used (Table 1) to test all chemical variables. All treatments were applied hydraulically with a spray simulator after which the plants were separated according to treatment (with cis-jasmone controls being separated) and left for 2 hours prior to insect application.
(§2) Analysis of protein in each treatment was conducted using Bradford Reagent: the data were analysed using the computer programme ‘GraFit’ (Erithacus software, Berkeley). To calculate the calibration curve a single logarithmic curve was used with regression analysis taking the values of the treatment wells (averages of the three readings taken: technical replicates).
(§3) A new method for the investigation of the development of whitefly to the pupal stage on tomatoes and cotton was used. […] These were checked for protein after ˜16 days using Bradford reagent.
(§4) Adults were added to the plant 2 h after treatment, and removed after 24 h. The eggs laid were then left for 16-18 days until they reached the pupal stage. The total pupal protein on the plant was tested using the Bradford reagent.

esterase [3] = conditions: topical application of 1 ul of 0.1% PBO
Method: The esterase activity of individuals from a clone of resistant Myzus persicae was measured at zero time, then at hourly intervals following in vivo topical application of 1 ul of 0.1% PBO. […] The assay would also be continued to determine the time taken for the esterase levels to return to normal.

Myzus persicae, US1L = assay: Glasshouse simulator trial: M. persicae protein on pepper plants treated with cis-jasmone and PBO; type: in vivo; conditions: for μg (Av) Total Protein (M. persicae): simulator, 25 pepper plants per treatment, three adult apterous aphids per plant, 7 days
Method: as §1, §2
To investigate developmental/fecundity effects of cis-jasmone+/−PBO (see Table 1) on Myzus persicae when applied to sweet peppers, adults were added to the plants and then using Bradford reagent, the amount of aphid protein present on the plants 7 days after treatment was measured. Esterase levels were also tested after the same interval to check for the possible induction of metabolic enzymes when using cis-jasmone. Aphids were brushed from all plants and each leaf checked individually to ensure none remained. The aphid mass for each treatment was weighed before total protein was assessed (total from all […] plants in the treatment).
Myzus persicae were applied to sweet peppers at the rate of three adults per plant. Aphids were brushed from all plants and each leaf checked individually to ensure none remained. The aphid mass for each treatment was assessed for total protein (total from all 25 plants in the treatment) using Bradford reagent. The amount of aphid protein present on the plants 7 days after treatment was measured. Plants were put into glasshouse simulators (one/treatment) and kept at 28° C., 12 L: […] and 80% R.H.

Bemisia tabaci, GUA MIX [4] = assay: Glasshouse simulator trial: B. tabaci pupae protein on tomato plants treated with cis-jasmone and PBO; type: in vivo; conditions: for μg (Av) Total Protein (B. tabaci pupae): simulator, ten tomato plants per treatment, ten adult whiteflies per plant, ~16 days
Method: as §1, §2, §3, §4
As described above 10 adult females were released on to each tomato plant, ten/treatment and after ˜16 days pupae were removed using a scalpel blade. These were checked for total protein using Bradford reagent. Plants were put into glasshouse simulators (one/treatment) and kept at 28° C., 12 L: […] and 80% R.H.

aphid (M. persicae) = assay: Bioassay: M. persicae protein on potato, pepper and black mustard plants treated with BABA and/or PBO; type: in vivo, Myzus persicae; conditions: 3 adult apterous aphids per plant, 3 mM BABA root drench, PBO E spray, 7 days
Method: In all bioassay experiments the control plants were sprayed with deionised water. Initially seven treatments were used (Table 1b) to test all chemical variables. […] Analysis of protein in each treatment was conducted using Bradford Reagent: the data were analysed using the computer programme ‘GraFit’ (Erithacus software, Berkeley). To calculate the calibration curve a single logarithmic curve was used with regression analysis taking the values of the treatment wells (averages of the three readings taken: technical replicates). Laboratory tests were undertaken to compare effects of combined and single treatments of PBO and BABA on control of aphid (M. persicae) on potato, pepper, and black mustard and whitefly (B. tabaci) on cotton and tomato. All tests included untreated and blank (water) controls, and both single and combined applications of PBO and BABA. […] To investigate developmental/fecundity effects of BABA+/−PBO E (see Table 1) on Myzus persicae when applied to plants, adults were added to the plants and then using Bradford reagent, the amount of aphid protein present on the plants 7 days after treatment was measured. Esterase levels were also tested after the same interval to check for the possible induction of metabolic enzymes when using BABA. Aphids were brushed from all plants and each leaf checked individually to ensure none remained. The aphid mass for each treatment was weighed before total protein was assessed (total from all five plants in the treatment).

B. tabaci = B. tabaci pupae protein on cotton plants treated with PBO and/or microencapsulated cis-jasmone; type: in vivo, Bemisia tabaci; conditions: for Protein WF (Av): five cotton plants per treatment, 5 adult female whiteflies per plant, ~16 days
Method: as §3, §4

**Q.** What does the source list for `CCCCOCCOCCOCc1cc2c(cc1CCC)OCO2` [PBO, 2-(2-butoxyethoxy)ethyl 6-propylpiperonyl ether]?
**A.** Protein A (Av) (Aphis gossypii; week 1): 20.05 µg; Protein A (Av) (Aphis gossypii; week 2): 15.1 µg; Protein A (Av) (Aphis gossypii; week 3): 16.3 µg; optimal concentration of PBO for esterase inhibition (esterase [1]): 1000 ppm; Protein WF (Av) (whitefly (B. tabaci); cotton plants, ~16 days, week 1): 0.14 µg; Protein WF (Av) (whitefly (B. tabaci); cotton plants, ~16 days, week 2): 0.14 µg; Protein WF (Av) (whitefly (B. tabaci); cotton plants, ~16 days, week 3): 0.15 µg; Protein WF (Av) (whitefly (B. tabaci); tomato plants, week 1): 0.23 µg; Protein WF (Av) (whitefly (B. tabaci); tomato plants, week 2): 0.33 µg; Protein WF (Av) (whitefly (B. tabaci); tomato plants, week 3): 0.32 µg; effect of adding PBO to the cis-jasmone treatment (in words) (Bemisia tabaci, GUA MIX [2]; B. tabaci on tomato, bioassay): clear and highly significant (p<0.001) synergistic effect; Av. Total Insect Protein μg (Bemisia tabaci, GUA MIX [2]; Bioassay, Bemisia tabaci (GUA MIX), average of weeks 1 to 3): 0.419 µg; μg (Av) Total Protein (B. tabaci pupae) (Bemisia tabaci, GUA MIX [2]; week 1): 0.28 µg; μg (Av) Total Protein (B. tabaci pupae) (Bemisia tabaci, GUA MIX [2]; week 2): 0.28 µg; μg (Av) Total Protein (B. tabaci pupae) (Bemisia tabaci, GUA MIX [2]; week 3): 0.3 µg; time delay for esterase inhibition (esterase [3]; individual cotton bollworms): 5 h; optimal time delay for esterase inhibition (esterase [3]; individual whiteflies): 10 h; effect of addition of PBO to cis jasmone on efficacy (in words) (Myzus persicae, US1L; M. persicae on pepper, simulator trial): does not significantly increase efficacy; Av. Total Insect Protein μg (Myzus persicae, US1L; Simulator, M. persicae (US1L) on Pepper (BellBoy), average of weeks 1 to 3): 14.406 µg; μg (Av) Total Protein (M. persicae) (Myzus persicae, US1L; week 1): 14.72 µg; μg (Av) Total Protein (M. persicae) (Myzus persicae, US1L; week 2): 14.2 µg; μg (Av) Total Protein (M. persicae) (Myzus persicae, US1L; week 3): 14.3 µg; effect of addition of PBO to cis-jasmone on reduction of insect protein (in words) (Bemisia tabaci, GUA MIX [4]; B. tabaci on tomato, simulator trial): potentiates the effect of cis-jasmone; Av. Total Insect Protein μg (Bemisia tabaci, GUA MIX [4]; Simulator, Bemisia tabaci (GUA MIX) on Tomato (Carousel), average of weeks 1 to 3): 0.156 µg; μg (Av) Total Protein (B. tabaci pupae) (Bemisia tabaci, GUA MIX [4]; week 1): 0.165 µg; μg (Av) Total Protein (B. tabaci pupae) (Bemisia tabaci, GUA MIX [4]; week 2): 0.169 µg; μg (Av) Total Protein (B. tabaci pupae) (Bemisia tabaci, GUA MIX [4]; week 3): 0.134 µg; Protein A (Av) (aphid (M. persicae); five black mustard plants, week 1): 19.30 µg; Protein A (Av) (aphid (M. persicae); five black mustard plants, week 2): 18.90 µg; Protein A (Av) (aphid (M. persicae); five black mustard plants, week 3): 18.00 µg; Protein A (Av) (aphid (M. persicae); five pepper plants, week 1): 22.10 µg; Protein A (Av) (aphid (M. persicae); five pepper plants, week 2): 21.60 µg; Protein A (Av) (aphid (M. persicae); five pepper plants, week 3): 23.50 µg; Protein A (Av) (aphid (M. persicae); five potato plants, week 1): 17.60 µg; Protein A (Av) (aphid (M. persicae); five potato plants, week 2): 22.30 µg; Protein A (Av) (aphid (M. persicae); five potato plants, week 3): 19.20 µg; effect of addition of PBO to microencapsulated cis-jasmone (in words) (B. tabaci; B. tabaci on cotton): potentiates the effect of this new microencapsulated cis-jasmone; Protein WF (Av) (B. tabaci; week 1): 0.167 µg; Protein WF (Av) (B. tabaci; week 2): 0.16 µg; Protein WF (Av) (B. tabaci; week 3): 0.17 µg
